Where “and” joins values, the source holds several entries; their conditions need not be identical. Equal values may be shown once.
System: biotinylated monoclonal anti-25OH vitamin D antibody
Assay: LOCI 25(OH)D immunoassay: 3-epimer cross-reactivity, no anti-3-epimer antibody added
Format: binding, sheep
Conditions: for Avg. Cross-reactivity, No anti-3-epimer VD Ab Added: average of ten patient sera spiked with 100 ng/mL 3-epimer vitamin D3
Experimental: The 25OH Vitamin D (25(OH)D) immunoassay format employed was a homogeneous competitive chemiluminescent immunoassay based on LOCI® assay technology. The assay was performed on the Siemens Dimension® EXL automated integrated clinical chemistry system (Siemens Healthcare Diagnostics Inc., Deerfield, Ill.). The assay measured the total concentration of 25(OH)D2 and/or 25(OH)D3 in serum and plasma samples. The LOCI® assay reagents included a releasing reagent, two synthetic bead reagents and a biotinylated monoclonal anti-25OH vitamin D antibody reagent. The first bead reagent (designated “Sensibeads”) was coated with streptavidin and contained a photosensitive dye. The second bead reagent (designated “Chemibeads”) was coated with a 25(OH)D3 analog and contained chemiluminescent dye. Sample was incubated with the releasing reagent to release 25(OH)D molecules including 3-epimeric compounds from vitamin D binding proteins. The reaction mixture was then incubated with biotinylated antibody to form a 25(OH)D-biotinylated antibody complex. […] Chemibeads were added to bind excess free biotinylated antibody. Sensibeads were then added to bind to the biotin portion of the biotinylated antibody. Aggregates of Chemibead-analog/antibody-biotin/streptavidin-Sensibeads were formed as a result. Illumination of the reaction mixture with light at 680 nm generates singlet oxygen from Sensibeads, which diffused into the Chemibeads and triggered a chemiluminescent reaction. The resulting chemiluminescent signal was measured at 612 nm and is inversely proportional to the concentration of total 25(OH)D in the sample.
The effect of adding anti-3-epimer-VD antibody 8F10.1 (anti-3-epimer VD Ab) on the 3-epimer cross-reactivity for the assay is shown in Table 1. […] The 3-epimer cross-reactivity was calculated by the difference between 25(OH)D2 or 25(OH)D3 values with and without the spiked 3-epimer compound divided by the amount of added 3-epimer compound.

## C=C1CC[C@@H](O)C/C1=C/C=C1\CCC[C@]2(C)[C@@H]([C@H](C)CCCC(C)(C)O)CC[C@@H]12 [3-epimer D3, 3-epi-25-hydroxyvitamin D3]
  Avg. Cross-reactivity, No anti-3-epimer VD Ab Added: 13.7%
Listed as 3-epimer vitamin D3 compound
  Avg. Cross-reactivity, No anti-3-epimer VD Ab Added: 13.7%
Individual patient sera (Sample ID 1-10) spiked with 100 ng/mL 3-epimer vitamin D3
  Cross-Reactivity, No anti-3-epimer VD Ab Added: 17.9% (2×) and 11.9% and 12.6% and 16.1% and 10.2% and 9.1% and 10.5% and 15.3% and 15.5%

From patent US10106498B2, “Compositions relating to vitamin D” (Siemens Healthcare Diagnostics Inc., priority 2014, dated 2018)
